In patent US20040166575A1, “Inosine producing bacterium belonging to the genus Bacillus and method for producing inosine” (priority 2003, published 2004):
“And” between values parts separate entries of the source, which are not always exact repeats. Identical values can stand only once.

Tests used:
[1] = tested on: 6-ethoxypurine-resistant strain EP1 (AJ13937); experiment: Assay for degree of 6-ethoxypurine resistance: colony growth on minimal medium plate, EP1 strain; assay type: cell-based, Bacillus subtilis; details: for Relative growth degree / Diameter of colony: EP1; for Relative growth degree: colony diameter with 2000 mg/L 6-ethoxypurine / without ×100; for Diameter of colony: minimal medium plate containing 6-ethoxypurine (2000 μg/mL)
[2] = tested on: Bacillus subtilis recombinant strain KMBS16 (purR, purA, deoD deficient); experiment: Assay for degree of 6-ethoxypurine resistance: colony growth on minimal medium plate, parent strain; assay type: cell-based; details: for Relative growth degree / Diameter of colony: KMBS16; for Relative growth degree: colony diameter with 2000 mg/L 6-ethoxypurine / without ×100; for Diameter of colony: minimal medium plate containing 6-ethoxypurine (2000 μg/mL)
[3] = tested on: 6-ethoxypurine-resistant strain EP2; experiment: Assay for degree of 6-ethoxypurine resistance: colony growth on minimal medium plate, EP2 strain; assay type: cell-based, Bacillus subtilis; details: for Relative growth degree / Diameter of colony: EP2; for Relative growth degree: colony diameter with 2000 mg/L 6-ethoxypurine / without ×100; for Diameter of colony: minimal medium plate containing 6-ethoxypurine (2000 μg/mL)
Method: Relative growth degree (%)=[colony diameter (mm) observed in the medium containing 6-ethoxypurine]/[colony diameter (mm) observed in the medium not containing 6-ethoxypurine]×100
The Bacillus subtilis recombinant strain KMBS16 deficient in the purine operon repressor gene (purR), succinyl-AMP synthase gene (purA) and purine nucleoside phosphorylase gene (deoD) was treated with 400 μg/ml of nitrosoguanidine (NTG) at 37° C. for 30 minutes. Then, the NTG-treated cell suspension was spread on a minimal medium (20 g/L of glucose, 5 g/L of ammonium chloride, 4 g/L of potassium dihydrogenphosphate, 0.01 g/L of ferrous sulfate, 0.01 g/L of manganese sulfate, 0.5 g/L of sodium citrate, 1.0 g/L of L-glutamic acid, 0.1 g/L of adenine, 50 mg/L of tryptophan, pH 7.0) plate containing 2000 mg/L of 6-ethoxypurine, and the cells were cultured at 37° C. for 24 hours. […] The EP1 strain was given a private number of AJ13937. This strain was deposited at the independent administrative agency, National Institute of Advanced Industrial Science and Technology, International Patent Organism Depositary (Tsukuba Central 6, 1-1, Higashi 1-Chome, Tsukuba-shi, Ibaraki-ken, 305-8566, Japan) on Dec. 25, 2001 and received an accession number of FERM P-18665. Then, it was transferred to an international deposit under the provisions of the Budapest Treaty on Jan. 14, 2004, and received an accession number of FERM BP-08595.
Degree of 6-ethoxypurine resistance of the mutant strain obtained as described above was examined in detail. The parent strain and the mutant strain were adenine auxotrophic, and the drug used was a purine analogue. Therefore, the amount of adenine added to the minimal medium was limited to the required minimum level (2 mg/L in this example).
The 6-ethoxypurine-resistant strains (EP1 strain and EP2 strain) and the parent strain KMBS16 were each inoculated into the minimum liquid medium and cultured overnight at 34° C. The cells were separated from the culture broth by centrifugation, washed three times with the minimal medium and suspended again in the same medium. The suspension was appropriately diluted with the same medium and spread on a minimal medium plate and a minimal medium plate containing 2000 mg/L of 6-ethoxypurine, and the cells were cultured at 34° C. […] The culture was continued even thereafter, and diameters of several single colonies were measured after […] to 66 hours. An average of colony diameters was calculated for each strain, and the relative growth degree was calculated according to the aforementioned equation.
In the tables, the symbol “−” means that no colony could be confirmed, and the symbol “±” means that since the colonies were indefinite, the diameters could not be measured.

## CCOc1ncnc2nc[nH]c12 [6-ethoxypurine]
[1]; 0 hr
  Relative growth degree: 0%
[1]; 42 hr
  Relative growth degree: 80.0% and 100.0%
[1]; 45 hr
  Relative growth degree: 83.3%
[1]; 48 hr
  Relative growth degree: 80.0%
[1]; 52 hr
  Relative growth degree: 100.0%
[1]; 34° C., 28 hr
  Diameter of colony: ±
[1]; 34° C., 42 hr
  Diameter of colony: 1.00 mm and 0.80 mm
[1]; 34° C., 45 hr
  Diameter of colony: 1.20 mm and 1.00 mm
[1]; 34° C., 48 hr
  Diameter of colony: 1.50 mm and 1.20 mm
[1]; 34° C., 52 hr
  Diameter of colony: 1.50 mm
[1]; 34° C., 66 hr
  Diameter of colony: 2.00 mm and 2.50 mm
[1]; EP1 strain, minimal medium plate containing 2000 mg/L of 6-ethoxypurine, 34° C., 24 hours
  colony formation after 24 hours: minute colonies were confirmed
[2]; 0 hr
  Relative growth degree: 0%
[2]; 42 hr
  Relative growth degree: 50.0% and 40.0%
[2]; 45 hr
  Relative growth degree: 58.3% and 41.7%
[2]; 48 hr
  Relative growth degree: 66.7% and 50.0%
[2]; 52 hr
  Relative growth degree: 66.7%
[2]; 66 hr
  Relative growth degree: 62.5% and 50.0%
[2]; 34° C., 28 hr
  Diameter of colony: −
[2]; 34° C., 42 hr
  Diameter of colony: 0.50 mm and 0.40 mm
[2]; 34° C., 45 hr
  Diameter of colony: 0.70 mm and 0.50 mm
[2]; 34° C., 48 hr
  Diameter of colony: 1.00 mm and 0.75 mm
[2]; 34° C., 52 hr
  Diameter of colony: 1.00 mm
[2]; 34° C., 66 hr
  Diameter of colony: 1.25 mm and 1.00 mm
[2]; parent strain KMBS16, minimal medium plate containing 2000 mg/L of 6-ethoxypurine, 34° C., 24 hours
  colony formation after 24 hours: no colony was confirmed
[3]; 0 hr
  Relative growth degree: 0%
[3]; 42 hr
  Relative growth degree: 100.0%
[3]; 34° C., 28 hr
  Diameter of colony: ±
[3]; 34° C., 42 hr
  Diameter of colony: 1.00 mm
[3]; 34° C., 45 hr
  Diameter of colony: 1.20 mm
[3]; 34° C., 48 hr
  Diameter of colony: 1.50 mm
[3]; 34° C., 52 hr
  Diameter of colony: 1.50 mm
[3]; 34° C., 66 hr
  Diameter of colony: 2.00 mm
[3]; EP2 strain, minimal medium plate containing 2000 mg/L of 6-ethoxypurine, 34° C., 24 hours
  colony formation after 24 hours: minute colonies were confirmed
